Data reported in article PMC13183915, “A platinum butterfly effect: small changes turn an anticancer drug into a non-toxic metalloantibiotic with in vivo efficacy” (npj Antimicrobials and Resistance, 2026).
≈ marks a conversion by molar mass, not a printed value. Like-named read-outs stand apart in the source and are kept apart here.

Key:
E. coli (NCTC 13476) = assay: MIC, E. coli NCTC 13476 (with or without PMBN); type: cell-based; details: Escherichia coli, NCTC13476
S. aureus (CCUG 62707) = assay: MIC of COD ligand and Pt precursor, S. aureus CCUG 62707; type: cell-based; details: Staphylococcus aureus, CCUG62707
Escherichia coli W3110 = assay: MIC assay, E. coli; type: cell-based; details: E. coli, Table S2
Bacillus subtilis MW168 = assay: MIC assay, B. subtilis MW168; type: cell-based; details: B. subtilis MW168
[1] = tested on: methicillin-sensitive Staphylococcus aureus (MSSA), clinical isolate; assay: MIC assay, MSSA clinical isolate; type: cell-based; details: MSSA clinical isolate
[2] = tested on: methicillin-resistant S. aureus (MRSA) COL; assay: MIC assay, MRSA COL; type: cell-based, Staphylococcus aureus; details: MRSA COL
S. aureus ATCC 29213 [3] = assay: Drug interaction study (chequerboard assay); type: cell-based; details: for MIC: Staphylococcus aureus, ATCC29213, compound alone, Table S8, read-out: MIC; for FIC B: antibiotic in combination with Pt1 / alone; for FIC (FICA+FICB) / Interference: combination with Pt1; for Interference: synergistic ≤0.5, indifferent >0.5 to 4, antagonistic >4
Protocol: All compounds were freshly prepared for the experiment. […] Following incubation, the fractional inhibitory concentration index (FICI) was calculated with the formula FICI = […], whereby FICA = MIC of drug A in combination/MIC of drug A alone and FICB = MIC of drug B in combination/MIC of drug B alone. A drug combination is considered synergistic when ∑FICI is ≤0.5, indifferent when ∑FICI is >0.5 to 4, and antagonistic when ∑FICI is >4.

MSSA ATCC 29213 = assay: Broth microdilution MIC, MSSA ATCC 29213; type: cell-based, S. aureus; details: Staphylococcus aureus; S.aureus ATCC 29213 (unpassaged), Table S9; read-out: MIC
Protocol: The data is given in supporting information (Table S5). Before starting the experiment, a single colony was picked from MHA plate, inoculated in MHBII and incubated overnight at 37 °C with shaking for 18–24 h to get the starter culture. Antibiotic susceptibility testing was conducted according to the CLSI (Clinical & Laboratory Standards Institute) guidelines using the broth microdilution assay. 10 mg/mL stock solutions of test compounds were prepared in DMSO. Bacterial cultures were inoculated in MHBII and optical density (OD) was measured at 600 nm, followed by dilution to achieve ~10^6 CFU/mL. The compounds were tested from 64 to 0.5 mg/L in two-fold serial diluted fashion with 2.5 μL of each concentration added to well of a 96-well round bottom microtiter plate. Later, 97.5 μL of bacterial suspension was added to each well containing either test compound or appropriate controls. […] The MIC is defined as the lowest concentration of the compound at which there is absence of visible growth. For each test compound, MIC determinations were carried out independently three times using duplicate samples.

[4] = tested on: 36th Passage S.aureus ATCC 29213 in the presence of Pt-1; assay: microbe, parasite or virus in culture; type: cell-based; details: Staphylococcus aureus, ATCC29213
Protocol: (§1) The MICs of the passaged cultures were determined every 3 days and compared to that of wild type S. aureus ATCC 29213. MIC changes were recorded for 36 passages.

[5] = tested on: RecA-GFP (B. subtilis UG10); assay: Localization of RecA-GFP (DNA damage reporter); type: cell-based, Bacillus subtilis; details: Pt1 3.125 µM, Pt8 25 µM, CisPt 100 µM; strongest after 10 min
Protocol: To confirm whether the compounds induce DNA damage in bacterial cells, the localization of RecA was assessed. RecA is part of the bacterial SOS response to DNA damage. It is a DNA-associated protein that recognizes single-stranded DNA, which occurs as a consequence of strand breaks. If strand breaks are present, RecA accumulates at the damaged sites, appearing as foci or elongated structures. Since the RecA response is strongest shortly after stress induction, we additionally examined a 10 min timepoint in this assay.
B. subtilis strains were grown in LB containing appropriate inducer concentrations as specified in Table S10. After reaching an OD600 of 0.3, cultures were split and treated with antibiotics. Samples were withdrawn after 30 and 60 min of treatment, spotted on glass slides covered with 1% agarose films, and immediately imaged.

B. subtilis bSS82 = assay: Bacterial cytological profiling (BCP); type: cell-based, Bacillus subtilis
Excerpt: To get an overview of the cellular effects of the compounds, we employed bacterial cytological profiling (BCP). To this end, we used a strain intracellularly expressing green-fluorescent protein (GFP) from the strong, constitutive PrpsD promoter (B. subtilis bSS82[37]), stained with the membrane dye Nile red and the DNA dye DAPI. Combined with phase contrast microscopy, this setup allows simultaneous assessment of cell morphology, cell lysis, pore formation, membrane morphology, and nucleoid morphology in one assay.
BCP was performed according to Wenzel et al.[71]. In short, B. subtilis strain […] (PrpsD-gfp) was grown to an OD600 of 0.3 prior to splitting of parent cultures and addition of antibiotics. Samples were taken for microscopy after 30, 60, and 120 min of antibiotic treatment. Five minutes prior to sampling, cultures were stained with 0.5 µg/mL Nile red and 1 µg/mL DAPI for 5 min. Samples of 0.5 µL were then spotted onto 1% agarose slides[45] and images were taken immediately.
Cell length and DAPI intensity were analyzed using MicrobeJ[73]. To this end, the fit shape, rod-shaped setting was used with a minimum area of 0.5 µm, while all other settings remained at default. B. subtilis chains were seperated based on the membrane stain. Membrane stress was counted using the ObjectJ plugin[74], using the membrane setting to seperate individual cells in chains. Membrane damage was expressed as ratio of cells with visible Nile red foci and total detected cells. DNA compaction was analyzed by determining the area of the DNA and the whole cell are using advanced weka segmentation. Cells were segmented according to the GFP signal. […] Cells that were out of focus or lysed were excluded from the analysis. Statistical analysis was peformed using GraphPad Prism 10 as specified in the individual figure legends.

HEK293T cells = type: cell-based, Human
Protocol: The control for the experiments was DMSO. HEK293T cells were cultivated in DMEM high glucose supplemented with 10% heat-inactivated fetal bovine serum, 100 U/mL of penicillin and streptomycin and maintained at a temperature of 37 °C with 5% CO2. Initially, 4000/well of cells were seeded into 96-well plates and incubated for 24 h before being exposed to compounds at concentrations ranging from 0.78, 50, and 100 µM. After 24 h of incubation, the compounds were added and serially diluted and incubated for 24 and 48 h at 37 °C 5% CO2, the cells were stained with alamar Blue, and the fluorescence excitation/ emission 540 nm/590 nm was measured using 96 well-plate reader. CC50 is defined as the lowest concentration of compound which leads to a 50% reduction in cell viability compared to untreated and DMSO control. Each experiment was repeated in triplicate.

[6] = tested on: 36th Passage S.aureus ATCC 29213 in the presence of Levofloxacin; assay: Antibiogram of strain passaged with levofloxacin; type: cell-based; details: Staphylococcus aureus, ATCC29213
Protocol: as §1

S. aureus ATCC 29213 [7] = assay: Post antibiotic effect (PAE); type: cell-based; details: for Time for 1 log10 increase in bacterial cfu count: 1 h exposure
Protocol: Post antibiotic effect (PAE) was determined as follows. […] Following incubation, cultures were centrifuged and washed twice with pre-warmed MHBII to remove any traces of antibiotics. Finally, cells were resuspended in drug-free MHBII and incubated further at 37 °C. Samples were taken every 1 h, serially diluted, and plated on tryptic soy agar (TSA) for enumeration of CFU. […] CFU observed immediately after the removal of the drug, and C in a similarly treated drug-free control.

[8] = 60 min, Pt1 3.125 µM, Pt8 25 µM, CisPt 100 µM

SMILES | MIC (S. aureus ATCC 29213 [3]) [µg/mL] | FIC B (S. aureus ATCC 29213 [3]) | FIC (FICA+FICB) (S. aureus ATCC 29213 [3]) | Interference (S. aureus ATCC 29213 [3]) | MIC (MSSA ATCC 29213) [µg/mL] | MIC [4] [µg/mL] | other results
C1=CCCC=CCC1 [1,5-Cyclooctadiene, 1,5-cyclooctadiene] |  |  |  |  |  |  | MIC (E. coli (NCTC 13476)): > 200 µM; MIC (S. aureus (CCUG 62707)): > 200 µM
N.N.O=C([O-])C1(C(=O)[O-])CCC1.[Pt+2] [Carboplatin] |  |  |  |  |  |  | MIC (Escherichia coli W3110): > 100 µM; MIC (Bacillus subtilis MW168): > 100 µM; MIC [1]: > 100 µM; MIC [2]: > 100 µM
CC(C)(O/N=C(\C(=O)N[C@@H]1C(=O)N2C(C(=O)[O-])=C(C[n+]3ccccc3)CS[C@H]12)c1csc(N)n1)C(=O)O [Ceftazidime] | 16 | 1 | 2 | no interaction | 16 (≈ 29.3 µM) | 16 (≈ 29.3 µM) | 
N.N.[Cl][Pt][Cl] [CisPt, cisplatin] |  |  |  |  |  |  | RecA accumulation on nucleoids [5]: clear RecA accumulations; DAPI fluorescence intensity (B. subtilis bSS82; [8]): significant reduction of the DAPI signal; nucleoid compaction (cell area vs DAPI-stained nucleoid area) (B. subtilis bSS82; [8]): clear nucleoid compaction; growth and cell length phenotype (B. subtilis bSS82; B. subtilis, 100 µM): slight growth defects and a mild cell elongation phenotype; IC50 (HEK293T cells; 24 h): 81.6 ± 5.1 µM; IC50 (HEK293T cells; 48 h): 22 ± 3.4 µM; MIC (Bacillus subtilis MW168): >100 µM; MIC [1]: >100 µM; MIC [2]: >100 µM
CCCCCCCCCC(=O)N[C@@H](Cc1c[nH]c2ccccc12)C(=O)N[C@H](CC(N)=O)C(=O)N[C@@H](CC(=O)O)C(=O)N[C@@H]1C(=O)NCC(=O)N[C@@H](CCCN)C(=O)N[C@@H](CC(=O)O)C(=O)N[C@H](C)C(=O)N[C@@H](CC(=O)O)C(=O)NCC(=O)N[C@H](CO)C(=O)N[C@@H]([C@H](C)CC(=O)O)C(=O)N[C@@H](CC(=O)c2ccccc2N)C(=O)O[C@@H]1C [Daptomycin] | 1 | 1 | 2 | no interaction | 1 (≈ 0.617 µM) | 1 (≈ 0.617 µM) | 
CNC(C)C1CCC(N)C(OC2C(N)CC(N)C(OC3OCC(C)(O)C(NC)C3O)C2O)O1 (centres unmarked) [Gentamicin] | 0.25 | 1 | 2 | no interaction | 0.25 (≈ 0.523 µM) | 0.5 (≈ 1.05 µM) | 
C[C@H]1COc2c(N3CCN(C)CC3)c(F)cc3c(=O)c(C(=O)O)cn1c23 [Levofloxacin] | 0.25 | 1 | 2 | no interaction | 0.25 (≈ 0.692 µM) | 0.25 (≈ 0.692 µM) | MIC [6]: 32 µg/mL (≈ 88.6 µM); PAE (S. aureus ATCC 29213 [7]; 1x MIC): ~ 0.5 h; Time for 1 log10 increase in bacterial cfu count (S. aureus ATCC 29213 [7]; 1x MIC): ~ 3 h; PAE (S. aureus ATCC 29213 [7]; 5x MIC): ~ 1.5 h; Time for 1 log10 increase in bacterial cfu count (S. aureus ATCC 29213 [7]; 5x MIC): ~ 4 h; PAE (S. aureus ATCC 29213 [7]; 10x MIC): ~ 1.5 h; Time for 1 log10 increase in bacterial cfu count (S. aureus ATCC 29213 [7]; 10x MIC): ~ 4 h; PAE (S. aureus ATCC 29213 [7]; 10x MIC, listed as levofloxacin): 1.5 h
